The source of these data is patent US9555061B2, “Synthesis and analysis of compounds capable of inducing differentiation of human mesenchymal stems cells into hepatocytes” (National University Corporation Torrori University, priority 2011, dated 2017).

What all share (assay type): cell-based, human
Test [1] has as its system CD90+CD271+ bone marrow-derived mesenchymal stem cells. Kind of test: Urea assay in CD90+CD271+ bone marrow-derived mesenchymal stem cells. As to conditions: hexachlorophene 4 μM, PN-3-13 20 μM, IC-2 40 μM; day 8 plus 96 h ammonium chloride. On the procedure:
A urea assay was performed according to the following protocol. CD90^+CD271^+ bone marrow-derived mesenchymal stem cells were seeded on a 24-well plate at a cell density of 1.8×10^4 cells/cm^2. This day was designated as day 0. At day 1 corresponding to the next day, each medium was changed to a medium containing hexachlorophene (at a final concentration of 4 μM), HC-2 (at a final concentration of 20 μM), PN-3-13 (at a final concentration of 20 μM), IC-2 (at a final concentration of 40 μM), or 0.1% DMSO. At day 4, the medium was changed in a manner similar to that at day 1, and the cells were cultured until day 8. At day 8, the medium was removed, and replaced with a medium containing ammonium chloride (Nacalai Tesque) at a final concentration of 5 mM. The cells were further cultured for 96 h. At 96 h after the addition of ammonium chloride, levels of urea in the medium were determined using a QuantiChrom Urea Assay Kit (BioAssay Systems) according to the attached protocol by reading the absorbance at a wavelength of 520 nm with a microplate reader. The levels of urea were calculated based on a standard sample according to the attached calculation method. As a negative control for the urea assay, used were CD90^+CD271^+ bone marrow-derived mesenchymal stem cells that were seeded one day before the day of the immunostaining and were not subjected to the differentiation induction.

The subject of test [2] is clinical specimen-derived mesenchymal stem cells. Kind of test: PAS staining in clinical specimen-derived mesenchymal stem cells. The following applies: day 8, PN-3-13 20 μM, IC-2 40 μM. The method, then: PAS staining was performed according to the following procedure. A cover glass that had been sterilized with 100% ethanol was placed on a 12-well plate. Cells were seeded on the cover glass at a cell density of 1.8×10^4 cells/cm^2. This day was designated as day 0. At day 1 corresponding to the next day, each medium was changed to a medium containing HC-2 (at a final concentration of 20 μM), PN-3-13 (at a final concentration of 20 μM), IC-2 (at a final concentration of 40 μM), or 0.1% DMSO. At day 4, the medium was changed in a manner similar to that at day 1, and the cells were cultured until day 8. At day 8, the cells were washed twice with PBS and were fixed with 4% paraformaldehyde for 30 min. As a negative control, α-amylase (Nacalai Tesque) at a final concentration of 10 mg/ml was added, and the cells were incubated therewith at 37° C. for 1 h to digest their glycogen. Subsequently, the cells were treated with 1% aqueous periodic acid for 5 min. Then, the cells were treated with a Schiff reagent (Nacalai Tesque) for 15 min to stain glycogen. After that, the cells were washed three times with aqueous sulfurous acid and were then washed three times with distilled water. The nuclei were stained with Mayer's Hematoxylin (MUTO PURE CHEMICALS CO., LTD.) for 1 min. […]

The test system is the same in test [3]. Kind of test: RT-PCR of hepatocyte differentiation marker in clinical specimen-derived mesenchymal stem cells. The following applies: hexachlorophene 4 μM, HC-2 20 μM, PN-3-13 20 μM, IC-2 40 μM. On the procedure: A fresh bone marrow aspirate was collected under informed consent from a patient (a person) with osteoarthritis who underwent replacement arthroplasty at the Department of Orthopedic Surgery, Tottori University Hospital. This aspirate was subjected to density gradient centrifugation using ficoll (Amersham Biosciences) to separate bone marrow mononuclear cells (FIG. 31). These bone marrow mononuclear cells were suspended in 1 ml of Hanks' balanced salt solution (HBSS, Gibco, Life Technologies Corp.) supplemented with a 100-fold diluted APC-labeled anti-CD90 antibody, a 407-fold diluted PE-labeled anti-CD271 antibody, and 2% fetal bovine serum (FBS, Defined, Thermo Fisher Scientific Inc.), and were stained on ice for 30 min. A flow cytometer (MoFlo XDP, Beckman Coulter Inc.) was used to selectively separate mesenchymal stem cells. The resulting cells were cultured in Dulbecco's Modified Eagle's Medium (Low Glucose, Gibco, Life Technologies Corp.) containing 20% FBS, 100 U/ml penicillin, […] streptomycin (Nacalai Tesque), and 20 ng/ml basic fibroblast growth factor (TRANS GENIC INC., Ltd.) on a 35-mm dish under conditions at 37° C. and 5% CO2. The medium was changed every 4 days. After colonies were formed, the cells were detached using a 0.025% trypsin/1 mM EDTA solution (Nacalai Tesque), split on a 100-mm dish, and cultured under conditions at 37° C. and 5% CO2. Then, the cells which were kept 70 to 80% confluent were detached using trypsin treatment. These cells in one dish were divided into four dishes for passage.
Cells were seeded on a 6-well plate at a cell density of 1.8×10^4 cells/cm^2. This day was designated as day 0. At day 1 corresponding to the next day, the medium was changed to a medium containing any one of hexachlorophene (at a final concentration of 4 μM), HC-2 (at a final concentration of 20 μM), PN-3-13 (at a final concentration of 20 μM), IC-2 (at a final concentration of 40 μM), and 0.1% DMSO. […]

For test [4], the system named is Wnt/β-catenin signaling pathway. The experiment in a line: Ability of inhibiting Wnt/β-catenin pathway, luciferase assay (UE7T-13). As to conditions: 8 days after the treatment; pTCF4-CMV-luciferase reporter. An excerpt: FIG. 3 is a schematic diagram illustrating how to establish a human mesenchymal stem cell stably expressing a β-catenin/TCF4/luciferase reporter gene. FIG. 3 illustrates how to construct pTCF4-CMVpro-GL4.20 plasmid by using a luciferase expression vector. The pTCF4-CMVpro-GL4.20 plasmid contains three TCF4 sequences […] upstream of a CMV promoter to express luciferase. In addition, pCMVpro-GL4.20 plasmid was constructed as a control. The resulting plasmids were each linearized, introduced into UE7T-13 by electroporation, and selected using puromycin (0.25 μg/ml) supplemented in a medium. Puromycin-resistant cells were cloned and used for a luciferase assay.
The cell line having a vector stably expressing luciferase was seeded on a 24-well plate, and was cultured at 37° C. At the next day, the medium was changed to a medium containing IC-2, etc., and the cell line was further cultured at 37° C. After that, at days 1, 4, and 8, a luciferase assay system (Promega) was used and the luciferase activity was read with a fluorescence plate reader (ARVO) at a wavelength of 556 nm.

A value given as a limit tells only on which side of the number the result lay.

As to “(6S,9aS)-6-phenyl-8-naphthalen-1-ylmethyl-4,7-dioxo-hexahydro-pyrazino[1,2-a]pyrimidine-1-carbocylic acid benzylamide [IC-2]”, in test [1], the “cellular urea synthesis compared with negative control (0.1% DMSO)” value was “apparent increase”. The “cellular glycogen accumulation compared with negative control (0.1% DMSO)” value in test [2] was “apparent increase”. In addition, the expression of albumin entry in test [3] was “induced”. In addition, the “concentration that significantly inhibited the Wnt/β-catenin signaling pathway” value in test [4] was ≥ 15 µM.
